Experimental data from patent US8420345B2, “Method for identifying at least two groups of microorganisms” (Biomerieux, priority 2006, dated 2013).

How the values were obtained:
[1] = tested on: the other serotypes (salmonella); experiment: Example 3: esterase substrate preference, conclusion from table 4; type: cell-based; conditions: coloration intensities being stronger for this substrate
Description: (§1) The media thus constituted were distributed into Petri dishes.
(§2) Various salmonella serotypes were inoculated, using a 10 μl calibrated loop, onto each medium, using calibrated suspensions of 0.5 McFarland. All the cultures were incubated for 24 h at 37° C.
(§3) The growth and coloration results obtained at 24 h of incubation are given in table 3, in which G signifies growth, C signifies color, I signifies colorless, In signifies coloration intensity, the sign ++ signifies very good growth, the sign + signifies good growth of the strain, the sign +/− signifies moderate growth of the strain and the sign − signifies lack of growth of the strain. 1 corresponds to a weak coloration intensity, 2 corresponds to moderate and 3 corresponds to strong.
As a result of this, a medium containing these two substrates of the same enzymatic activity makes it possible to obtain colored colonies for the various salmonella serotypes, and to separate the Dublin serotype from the other salmonella serotypes and from bacteria not expressing esterase.

[2] = tested on: S. enteritidis serotype Dublin; experiment: Example 3: colony color, coloration intensity and growth on Columbia agar with esterase substrates; type: cell-based; conditions: X—C8 versus Magenta-C8
Description: as §1, §2, §3

## CCCCCCCC(=O)Oc1c[nH]c2cc(Cl)c(Br)cc12 [Magenta-C8, 5-Bromo-6-Chloro-3-Indoxyl Octanoate]
[1]
  preferential hydrolysis by esterase activity: preferentially hydrolyze Magenta-C8

## CCCCCCCC(=O)Oc1c[nH]c2ccc(Br)c(Cl)c12 [X—C8, 5-Bromo-4-Chloro-3-Indoxyl Octanoate]
[2]
  specificity of hydrolysis by esterase activity: hydrolyzes X—C8 more specifically than Magenta-C8
